Test results: patent US12692256B2, “Salts and crystalline forms of a TAAR1 agonist” (Hoffmann-La Roche Inc., priority 2020, dated 2026)
“Also recorded” adds a separate entry of the source. Where a name gives a salt, the structure may show the parent alone.

How the values were obtained:
[1] = Dynamic Vapour Sorption (DVS) hygroscopicity; assay type: physicochemical; settings: for Hygroscopicity, weight increase: 0%-RH to 90%-RH at 25° C.; for Hygroscopicity: increase in mass when relative humidity is raised from 0%-RH to 90%-RH at 25° C.
Protocol: For each salt formation experiment 5-ethyl-4-methyl-N-[4-[(2S) morpholin-2-yl]phenyl]-1H-pyrazole-3-carboxamide (approx. 450 mg) was dissolved in dioxane (approx. 90 mL) at elevated temperature (approx. 90° C.) in a 100 mL glass vial. The clear solution was then cooled to 60° C. (to approx. 40° C. for adipic acid) prior to the addition of approx. 1.1 equivalents (approx. 0.55 equivalents for sulfuric acid) of a 0.5 M (0.2 M for fumaric acid) stock solution in dioxane of the respective acid under agitation. The reaction mixture was then allowed to reach ambient temperature passively and further agitated overnight. In the cases of adipic acid, the solvent was partially evaporated at this stage to increase the yield. The solid residue was collected by filtration and rinsed with approx. 2 mL of dioxane. A sample of the wet product was analyzed by XRPD. The remainder of the product was dried in a vacuum tray dryer at 50° C./<10 mbar for 2 days prior to analysis by XRPD, DSC, TGA, and, if appropriate, also by DVS.
Moisture sorption/desorption data were collected on a DVS Advantage, a DVS Adventure, or a DVS Intrinsic (SMS Surface Measurements Systems) moisture balance system. The sorption/desorption isotherms were measured stepwise in a range from 0%-RH to 90%-RH at typically 25° C. A weight change of typically <0.001%/min was chosen as criterion to switch to the next level of relative humidity (with a maximum equilibration time of typically 24 hours, if the weight change criterion was not met). The data were corrected for the initial moisture content of the samples by taking the weight after drying of the samples at 0%-RH as zero point. The hygroscopicity of a given substance is characterized (by close analogy with the European Pharmacopoeia) by the increase in mass when the relative humidity is raised from 0%-RH to 90%-RH at 25° C.: […]

Aqueous solubility = assay type: physicochemical
Protocol: Aqueous solubility was determined by suspending sufficient compound in water water to give a maximum final concentration of 100 mg/mL. The solution was stirred for 24 hours at room temperature (25° C.±5° C.) on a magnetic stirrer using a magnetic stir bar. The final pH of the suspension was measured after 24 hours with a standard pH meter. The suspension was filtered by centrifugation through a ≤0.45 μm PVDF filter. The filtrate was then diluted 1:500 using a solution of ethanol: water (1:1). Quantification was by HPLC using a previously developed HPLC method (Table 4). A standard curve with a concentration range from 0.001 mg/mL-0.3 mg/ml. The solubility was automatically calculated using the peak area of the main peak in the chromatogram.
Aqueous solubility was determined by suspending sufficient compound in water to give a maximum final concentration of ≥10 mg/mL of the parent free-form of the compound. The suspension was equilibrated at 25° C. for 24 hours then the pH was measured. The suspension was then filtered through a glass fibre C filter. The filtrate was then diluted by an appropriate factor e.g. 101. Quantitation was by HPLC with reference to a standard solution of approximately 0.25 mg/mL in DMSO. Different volumes of the standard, diluted and undiluted sample solutions were injected. […]

[2] = crystalline Form A, between 0-90% RH

Row | SMILES | Hygroscopicity, weight increase ([1]; re-crystallized salt forms) | Hygroscopicity ([1]; re-crystallized salt forms) | Hygroscopicity ([1]; crude salt forms) | other results
1 | CCc1[nH]nc(C(=O)Nc2ccc([C@H]3CNCCO3)cc2)c1C [Sulfuric acid, 5-ethyl-4-methyl-N-[4-[(2S)morpholin-2-yl]phenyl]-1H-pyrazole-3-carboxamide] | (0.1%-m/m | Non-hygroscopic | – | –
2 | CCc1[nH]nc(C(=O)Nc2ccc([C@H]3CNCCO3)cc2)c1C [Citric acid, 5-ethyl-4-methyl-N-[4-[(2S)morpholin-2-yl]phenyl]-1H-pyrazole-3-carboxamide] | – | – | Very hygroscopic; also recorded: (deliquescent) (deliquescent: sufficient water is adsorbed to form a liquid) | –
3 | CCc1[nH]nc(C(=O)Nc2ccc([C@H]3CNCCO3)cc2)c1C [Adipic acid, 5-ethyl-4-methyl-N-[4-[(2S)morpholin-2-yl]phenyl]-1H-pyrazole-3-carboxamide] | (0.2%-m/m | – | – | –
4 | CCc1[nH]nc(C(=O)Nc2ccc([C@H]3CNCCO3)cc2)c1C [p-Toluenesulfonic acid, 5-ethyl-4-methyl-N-[4-[(2S)morpholin-2-yl]phenyl]-1H-pyrazole-3-carboxamide] | (<0.1%-m/m | Non-hygroscopic | – | –
5 | CCc1[nH]nc(C(=O)Nc2ccc([C@H]3CNCCO3)cc2)c1C [5-ethyl-4-methyl-N-[4-[(2S)morpholin-2-yl]phenyl]-1H-pyrazole-3-carboxamide, mono hydrochloric acid salt] | – | – | – | relative humidity at which rate of water uptake was observed to increase ([1]; crystalline Form A): > 80 % RH; hysteresis (DVS) [1, 2]: no hysteresis; mass uptake (DVS) [1, 2]: < 0.1%; pH of saturated aqueous solution (Aqueous solubility; saturated aqueous solution after 24 hours): 5.3; solubility at 24 h (Aqueous solubility; water, thermodynamic from solid, saturated aqueous solution, 24 hours at 25° C., pH 5.3): 52.8 mg/mL
6 | CCc1[nH]nc(C(=O)Nc2ccc([C@H]3CNCCO3)cc2)c1C [Methanesulfonic acid, 5-ethyl-4-methyl-N-[4-[(2S)morpholin-2-yl]phenyl]-1H-pyrazole-3-carboxamide] | – | – | Hygroscopic | phase transformation (relative humidity) ([1]; crude salt form, at 25° C.): at >80%-RH at; Hygroscopicity, weight increase ([1]; crude salt forms): (8.5%-m/m weight
7 | CCc1[nH]nc(C(=O)Nc2ccc([C@H]3CNCCO3)cc2)c1C [Glycolic acid, 5-ethyl-4-methyl-N-[4-[(2S)morpholin-2-yl]phenyl]-1H-pyrazole-3-carboxamide] | – | – | Very hygroscopic; also recorded: (deliquescent) (deliquescent: sufficient water is adsorbed to form a liquid) | –

Second part, led by results:

Row | Hygroscopicity, weight increase ([1]; re-crystallized salt forms) | Hygroscopicity ([1]; re-crystallized salt forms) | SMILES | Hygroscopicity ([1]; crude salt forms) | other results
8 | (0.4%-m/m | – | CCc1[nH]nc(C(=O)Nc2ccc([C@H]3CNCCO3)cc2)c1C [L(+)-Tartaric acid, 5-ethyl-4-methyl-N-[4-[(2S)morpholin-2-yl]phenyl]-1H-pyrazole-3-carboxamide] | – | –
9 | (<0.1%-m/m | Non-hygroscopic | CCc1[nH]nc(C(=O)Nc2ccc([C@H]3CNCCO3)cc2)c1C [Hydrochloric acid, 5-ethyl-4-methyl-N-[4-[(2S)morpholin-2-yl]phenyl]-1H-pyrazole-3-carboxamide] | – | Hygroscopicity, weight increase ([1]; crude salt forms): (0.5%-m/m weight
10 | (0.2%-m/m | – | CCc1[nH]nc(C(=O)Nc2ccc([C@H]3CNCCO3)cc2)c1C [Phosphoric acid, 5-ethyl-4-methyl-N-[4-[(2S)morpholin-2-yl]phenyl]-1H-pyrazole-3-carboxamide] | – | –
